The values that follow come from patent US5264565A, “Nucleic acid encoding the D2 /Ml chimeric receptor” (Affymax Technologies, N.V., priority 1991, dated 1993).

pKi: −log10 of the molar value.

For one experiment, the target named is D2 /ml receptor. Briefly: Competition binding assay with [3H]-spiperone, D2/ml chimeric receptor. Also on record: species or system human. The settings on record: for pKi: D2/ml Receptor, 0.5 nM [3H]-spiperone, anti-log of mean log Ki, three experiments, Cheng-Prusoff. The procedure: (§1) Cells were detached from culture flasks with EDTA, pelleted at 1,000×g and resuspended in 1× binding buffer (100 mM Tris; 120 mM NaCl; 5 mM KCl; 1 mM MgCl2; 2 mM CaCl2; 1.1 mM ascorbic acid; pH 7.4) at ~1×10^6 cells/ml. Cells were homogenized with a Polytron (Brinkman) and the crude membrane fraction was pelleted at 17,000× g for 10 min. […] Triplicate binding reactions were done in IX binding buffer for 30 min. at 37°, then stopped by filtration through glass-fiber filters (Skatron) that were pre-soaked in 0.1% polyethyleneimine, followed by a 5 sec. wash with ice cold 0.1× binding buffer. […] Competing ligands were all from Research Biochemicals Inc.

The target in experiment [1] is T1, D2(414) receptor (Homo sapiens, UniProt P14416). The settings on record: dopamine 100 μM, CHO cells expressing D2(414) receptor (FIG. 3A).
T1 sequence (P14416 1-414 isoform P14416-2): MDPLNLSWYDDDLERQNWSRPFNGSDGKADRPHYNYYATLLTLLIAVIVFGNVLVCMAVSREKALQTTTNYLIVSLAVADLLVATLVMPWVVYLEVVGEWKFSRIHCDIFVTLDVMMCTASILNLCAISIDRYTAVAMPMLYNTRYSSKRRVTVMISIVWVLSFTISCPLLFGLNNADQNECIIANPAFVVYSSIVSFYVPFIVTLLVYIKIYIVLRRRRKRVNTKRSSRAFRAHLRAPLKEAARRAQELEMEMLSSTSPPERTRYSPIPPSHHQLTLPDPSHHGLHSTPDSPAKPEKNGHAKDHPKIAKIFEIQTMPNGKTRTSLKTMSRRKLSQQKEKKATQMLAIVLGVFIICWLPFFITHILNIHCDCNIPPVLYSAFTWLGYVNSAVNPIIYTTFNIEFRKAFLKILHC
A further experiment has as its system D2 /ml chimeric receptor. The settings on record: dopamine 0.1-1000 μM, CHO cells expressing D2/ml receptor (FIG. 3B).
For experiment [2], the system named is non-transfected CHO cells. As to the kind of experiment: [Ca+2]i assay (Fura-2) in non-transfected CHO cells.
Experiment [3] deals with T1, D2(414) receptor. As to the kind of experiment: Competition binding assay with [3H]-spiperone, D2(414) receptor. More on the design: expressed in transfected cells. As for the experimental part: as §1
A further experiment has as its system CHO cells. As to the kind of experiment: Radioligand specific binding in non-transfected CHO cells. Also on record: species or system Chinese hamster. The following applies: preliminary studies. As for the experimental part: Cells were detached from culture flasks with EDTA, pelleted at 1,000×g and resuspended in 1× binding buffer (100 mM Tris; 120 mM NaCl; 5 mM KCl; 1 mM MgCl2; 2 mM CaCl2; 1.1 mM ascorbic acid; pH 7.4) at ~1×10^6 cells/ml. Cells were homogenized with a Polytron (Brinkman) and the crude membrane fraction was pelleted at 17,000× g for 10 min. […] Triplicate binding reactions were done in IX binding buffer for 30 min. at 37°, then stopped by filtration through glass-fiber filters (Skatron) that were pre-soaked in 0.1% polyethyleneimine, followed by a 5 sec. wash with ice cold 0.1× binding buffer.

With `NCCc1ccc(O)c(O)c1` [Dopamine], at D2 /ml receptor, the pKi (usually −log10 of the Ki, conventionally taken in molar units) was 5.68. Further, the results for the “[Ca+2]i” value (on D2(414) receptor [1]; in experiment [2] (dopamine 1 mM)) were “failed to alter” and “unaltered”, respectively. Also, the “[Ca+2]i response” value with D2 /ml chimeric receptor is reported as “elevated in a dose dependent manner”. Compound `CCCN(CCc1ccccc1)C1CCc2c(O)cccc2C1` (stereo not drawn) [N-0434] showed a pKi at D2 /ml receptor of 7.57.

For `CN1CCc2cc(Cl)c(O)cc2[C@@H](c2ccccc2)C1` [SCH-23390], the negative-log Ki (pKi) on D2 /ml receptor is 5.44; at D2(414) receptor [3], 5.68. For the same compound, the “Difference in Ki between D2(414) and D2/ml receptor” value at D2 /ml receptor (comparison of Ki at the two receptors, t-test) was “small”. `CCN1CCC[C@H]1CNC(=O)c1cc(S(N)(=O)=O)ccc1OC` [(-) Sulpiride] gave a negative-log Ki (pKi) at D2 /ml receptor of 7.35. Still for that read-out and setting: then `Oc1cc2c(cc1O)C(c1ccccc1)CNCC2` (stereo not drawn) [SKF-38393], with 4.44.

As to `O=C(CCCN1CCC2(CC1)C(=O)NCN2c1ccccc1)c1ccc(F)cc1` [[^3 H]-spiperone], in the experiment with CHO cells, the Specific binding entry is “no detectable specific binding”. Regarding `C[N+](C)(C)CCOC(N)=O` [carbachol], in experiment [2] (carbachol 100 μM), the “[Ca+2]i” value is on record as “unaltered”.
